Measured values as given in patent publication US5968910A, “Compositions containing two or three inhibitors of different HIV reverse transcriptases” (priority 1994, dated 1999).

Columns and labels:
Assay type in all cases: cell-based
[1] = system: HIV-1; assay: Breakthrough of mutant HIV-1 strains in CEM cell cultures, single drugs and double/triple combinations
Description: The culture medium consisted of RPMI 1640 containing 10% fetal bovine serum, 2 mM L-glutamine, and 0.075% NaHCO3. The multiplicity of the initial infection was ~1000 times the CCID50 (50% cell culture infective dose). Passages were performed every 3 to 4 days by adding 0.5 to 1.0 ml of the infected culture supernatant to 5 ml of a suspension containing 4×10^5 uninfected CEM cells per ml. Syncytium formation was used as a parameter of virus breakthrough in the cell cultures. In the drug combination experiments, the compounds were combined at the same initial concentrations as used for the two lowest concentrations in the single-drug experiments.
Compound IV, BHAP and TSAO-m^3 T were added to HIV-1-infected CEM cell cultures at 0.04, 0.10 and 0.25 ug/ml (Compound IV and BHAP) or 1.0, 2.5 and 5.0 μg/ml (TSAO-m^3 T). In addition, various double- and triple-drug combinations of Compound IV, BHAP and TSAO-m^3 T were performed, combining these inhibitors at their lowest (0.04 μg/ml) or intermediary (0.1 μg/ml) concentration as used in the single-drug experiments.

[2] = system: HIV-1(IIIB) (WT); assay: microbe, parasite or virus in culture
Description: (§1) CEM cells were suspended at 250,000 cells per ml of culture medium and infected with wild-type HIV-I(IIIB) or mutant HIV-1 strains at 100 50% cell culture infective doses per ml. Then 100 μl of the infected cell suspensions was added to 200-μl microtiter plate wells containing 100 μl of an appropriate dilution of the test compounds. After 4 days incubation at 37° C., the cell cultures were examined for syncytium formation.

[3] = system: HIV-1/III(0.1) 103-Asn; assay: Sensitivity of mutant HIV-1 strain in CEM cell cultures; conditions: Table 5
Description: as §1

[4] = system: HIV-1/IV(0.1) 103-Thr; assay: as above; conditions: Table 5
Description: as §1

[5] = system: HIV-1/V(0.1) 101-Ile + 141-Glu; assay: as above; conditions: Table 5
Description: as §1

[6] = system: HIV-1/B 101Glu; assay: as above; conditions: Table 5
Description: as §1

[7] = system: HIV-1/I(0.1) 103-Asn; assay: as above; conditions: Table 5
Description: as §1

[8] = system: HIV-1/V(0.5) 103-Asn; assay: as above; conditions: Table 5
Description: as §1

[9] = system: HIV-1/II(0.1) 100-Ile; assay: as above; conditions: Table 5
Description: as §1

CC(C)Nc1cccnc1N1CCN(C(=O)c2cc3cc(NS(C)(=O)=O)ccc3[nH]2)CC1 [BHAP U90152]
0.50 µg/mL: EC50 [8]
100 percentage of control: HIV-1-induced syncytium formation in CEM cells ([1]; single drug 0.04 μg/ml, day 14 post infection) | HIV-1-induced syncytium formation in CEM cells ([1]; single drug 0.04 μg/ml, day 18 post infection) | HIV-1-induced syncytium formation in CEM cells ([1]; single drug 0.04 μg/ml, day 21 post infection) | HIV-1-induced syncytium formation in CEM cells ([1]; single drug 0.04 μg/ml, day 25 post infection) | HIV-1-induced syncytium formation in CEM cells ([1]; single drug 0.04 μg/ml, day 28 post infection) | HIV-1-induced syncytium formation in CEM cells ([1]; single drug 0.04 μg/ml, day 32 post infection) | HIV-1-induced syncytium formation in CEM cells ([1]; single drug 0.04 μg/ml, day 35 post infection) | HIV-1-induced syncytium formation in CEM cells ([1]; single drug 0.04 μg/ml, day 39 post infection) | HIV-1-induced syncytium formation in CEM cells ([1]; single drug 0.04 μg/ml, day 42 post infection) | HIV-1-induced syncytium formation in CEM cells ([1]; single drug 0.04 μg/ml, day 46 post infection) | HIV-1-induced syncytium formation in CEM cells ([1]; single drug 0.04 μg/ml, day 49 post infection) | HIV-1-induced syncytium formation in CEM cells ([1]; single drug 0.04 μg/ml, day 53 post infection) | HIV-1-induced syncytium formation in CEM cells ([1]; single drug 0.04 μg/ml, day 56 post infection) | HIV-1-induced syncytium formation in CEM cells ([1]; single drug 0.04 μg/ml, day 60 post infection) | HIV-1-induced syncytium formation in CEM cells ([1]; single drug 0.04 μg/ml, day 64 post infection) | HIV-1-induced syncytium formation in CEM cells ([1]; single drug 0.04 μg/ml, day 67 post infection) | HIV-1-induced syncytium formation in CEM cells ([1]; single drug 0.04 μg/ml, day 71 post infection) | HIV-1-induced syncytium formation in CEM cells ([1]; single drug 0.04 μg/ml, day 74 post infection) | HIV-1-induced syncytium formation in CEM cells ([1]; single drug 0.04 μg/ml, day 77 post infection) | HIV-1-induced syncytium formation in CEM cells ([1]; single drug 0.10 μg/ml, day 21 post infection) | HIV-1-induced syncytium formation in CEM cells ([1]; single drug 0.10 μg/ml, day 25 post infection) | HIV-1-induced syncytium formation in CEM cells ([1]; single drug 0.10 μg/ml, day 28 post infection) | HIV-1-induced syncytium formation in CEM cells ([1]; single drug 0.10 μg/ml, day 32 post infection) | HIV-1-induced syncytium formation in CEM cells ([1]; single drug 0.10 μg/ml, day 35 post infection) | HIV-1-induced syncytium formation in CEM cells ([1]; single drug 0.10 μg/ml, day 39 post infection) | HIV-1-induced syncytium formation in CEM cells ([1]; single drug 0.10 μg/ml, day 42 post infection) | HIV-1-induced syncytium formation in CEM cells ([1]; single drug 0.10 μg/ml, day 46 post infection) | HIV-1-induced syncytium formation in CEM cells ([1]; single drug 0.10 μg/ml, day 49 post infection) | HIV-1-induced syncytium formation in CEM cells ([1]; single drug 0.10 μg/ml, day 53 post infection) | HIV-1-induced syncytium formation in CEM cells ([1]; single drug 0.10 μg/ml, day 56 post infection) | HIV-1-induced syncytium formation in CEM cells ([1]; single drug 0.10 μg/ml, day 60 post infection) | HIV-1-induced syncytium formation in CEM cells ([1]; single drug 0.10 μg/ml, day 64 post infection) | HIV-1-induced syncytium formation in CEM cells ([1]; single drug 0.10 μg/ml, day 67 post infection) | HIV-1-induced syncytium formation in CEM cells ([1]; single drug 0.10 μg/ml, day 71 post infection) | HIV-1-induced syncytium formation in CEM cells ([1]; single drug 0.10 μg/ml, day 74 post infection) | HIV-1-induced syncytium formation in CEM cells ([1]; single drug 0.10 μg/ml, day 77 post infection) | HIV-1-induced syncytium formation in CEM cells ([1]; single drug 0.25 μg/ml, day 21 post infection) | HIV-1-induced syncytium formation in CEM cells ([1]; single drug 0.25 μg/ml, day 25 post infection) | HIV-1-induced syncytium formation in CEM cells ([1]; single drug 0.25 μg/ml, day 28 post infection) | HIV-1-induced syncytium formation in CEM cells ([1]; single drug 0.25 μg/ml, day 32 post infection) | HIV-1-induced syncytium formation in CEM cells ([1]; single drug 0.25 μg/ml, day 35 post infection) | HIV-1-induced syncytium formation in CEM cells ([1]; single drug 0.25 μg/ml, day 39 post infection) | HIV-1-induced syncytium formation in CEM cells ([1]; single drug 0.25 μg/ml, day 42 post infection) | HIV-1-induced syncytium formation in CEM cells ([1]; single drug 0.25 μg/ml, day 46 post infection) | HIV-1-induced syncytium formation in CEM cells ([1]; single drug 0.25 μg/ml, day 49 post infection) | HIV-1-induced syncytium formation in CEM cells ([1]; single drug 0.25 μg/ml, day 53 post infection) | HIV-1-induced syncytium formation in CEM cells ([1]; single drug 0.25 μg/ml, day 56 post infection) | HIV-1-induced syncytium formation in CEM cells ([1]; single drug 0.25 μg/ml, day 60 post infection) | HIV-1-induced syncytium formation in CEM cells ([1]; single drug 0.25 μg/ml, day 64 post infection) | HIV-1-induced syncytium formation in CEM cells ([1]; single drug 0.25 μg/ml, day 67 post infection) | HIV-1-induced syncytium formation in CEM cells ([1]; single drug 0.25 μg/ml, day 71 post infection) | HIV-1-induced syncytium formation in CEM cells ([1]; single drug 0.25 μg/ml, day 74 post infection) | HIV-1-induced syncytium formation in CEM cells ([1]; single drug 0.25 μg/ml, day 77 post infection)
0.47 µg/mL: EC50 [4]
0 percentage of control: HIV-1-induced syncytium formation in CEM cells ([1]; single drug 0.04 μg/ml, day 4 post infection) | HIV-1-induced syncytium formation in CEM cells ([1]; single drug 0.10 μg/ml, day 4 post infection) | HIV-1-induced syncytium formation in CEM cells ([1]; single drug 0.10 μg/ml, day 7 post infection) | HIV-1-induced syncytium formation in CEM cells ([1]; single drug 0.10 μg/ml, day 11 post infection) | HIV-1-induced syncytium formation in CEM cells ([1]; single drug 0.25 μg/ml, day 4 post infection) | HIV-1-induced syncytium formation in CEM cells ([1]; single drug 0.25 μg/ml, day 7 post infection) | HIV-1-induced syncytium formation in CEM cells ([1]; single drug 0.25 μg/ml, day 11 post infection)
1.0 µg/mL: EC50 [6]
14 days: virus breakthrough delayed till day ([1]; single drug, higher concentrations)
0.10 µg/mL: EC50 [5]
12.5 percentage of control: HIV-1-induced syncytium formation in CEM cells ([1]; single drug 0.04 μg/ml, day 7 post infection) | HIV-1-induced syncytium formation in CEM cells ([1]; single drug 0.10 μg/ml, day 14 post infection)
0.05 µg/mL: EC50 [3]
0.67 µg/mL: EC50 [9]
0.010 µg/mL: EC50 [2]
50 percentage of control: HIV-1-induced syncytium formation in CEM cells ([1]; single drug 0.25 μg/ml, day 18 post infection)
6.25 percentage of control: HIV-1-induced syncytium formation in CEM cells ([1]; single drug 0.25 μg/ml, day 14 post infection)
75 percentage of control: HIV-1-induced syncytium formation in CEM cells ([1]; single drug 0.04 μg/ml, day 11 post infection) | HIV-1-induced syncytium formation in CEM cells ([1]; single drug 0.10 μg/ml, day 18 post infection)
0.25 µg/mL: EC50 [7]
